Measured values published in PubChem BioAssay (NCI).
Several values for one entry are separate records, joined by “and”; a condition that tells them apart may be missing. Identical values can stand only once.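 1) Cells in 96-well plates. 2) Compound, 48 h, 5 concentrations. 3) Linear interpolation between surrounding doses. 4) Unreached endpoint = highest concentration. Abbreviation: GI50, concentration required for 50% inhibition of growth. Definition used: TGI = concentration required for complete inhibition of growth.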

Assays:
Assay in all cases: NCI-60 cell line screen, 48 h
SNB-75 CNS = system: SNB-75 CNS
NCI/ADR-RES ovarian = system: NCI/ADR-RES ovarian
786-0 renal = system: 786-0 renal
COLO 205 colon = system: COLO 205 colon
CAKI-1 renal = system: CAKI-1 renal
OVCAR-3 ovarian = system: OVCAR-3 ovarian
HL-60(TB) leukemia = system: HL-60(TB) leukemia
PC-3 prostate = system: PC-3 prostate
SK-MEL-5 melanoma = system: SK-MEL-5 melanoma
HT29 colon = system: HT29 colon

| Structure (SMILES) | GI50 (SNB-75 CNS) | TGI (SNB-75 CNS) | GI50 (NCI/ADR-RES ovarian) | TGI (NCI/ADR-RES ovarian) | GI50 (786-0 renal) | TGI (786-0 renal) | GI50 (COLO 205 colon) | TGI (COLO 205 colon) | GI50 (CAKI-1 renal) | TGI (CAKI-1 renal) | GI50 (OVCAR-3 ovarian) | TGI (OVCAR-3 ovarian) | GI50 (HL-60(TB) leukemia) | TGI (HL-60(TB) leukemia) | GI50 (PC-3 prostate) | TGI (PC-3 prostate) | GI50 (SK-MEL-5 melanoma) | TGI (SK-MEL-5 melanoma) | GI50 (HT29 colon) | TGI (HT29 colon) |
| --- | --- | --- | --- | --- | --- | --- | --- | --- | --- | --- | --- | --- | --- | --- | --- | --- | --- | --- | --- | --- |
| NC(=O)/C(=C/n1cnc(-c2cc(C(F)(F)F)cc(C(F)(F)F)c2)n1)c1cncnc1 | 0.454 µM | 5.48 µM | 0.517 µM | 23.9 µM | 0.412 µM | 11.4 µM | 0.124 µM | 11.5 µM | 0.275 µM | 14.1 µM | 0.154 µM | 3.32 µM | 0.0562 µM | 2.96 µM | 0.185 µM | 14.8 µM | 1.13 µM | 10.2 µM | 0.422 µM | 16.3 µM |
| CC(C)OP(=O)(O)c1ncc(-c2ccc(C(F)(F)F)cc2)c(NC2CCCCCC2)n1 | > 100 µM | > 100 µM | > 100 µM | > 100 µM | > 100 µM | > 100 µM | > 100 µM | > 100 µM | > 100 µM | > 100 µM | 87 µM | > 100 µM | 38.2 µM | > 100 µM | 57.1 µM | > 100 µM | 51 µM | > 100 µM | > 100 µM | > 100 µM |
| CCOc1ccc2cc(-c3nn(CC4CCNCC4)c4ncnc(N)c34)ccc2c1 | 5.13 µM | 20.8 µM | 15.6 µM | 29.8 µM | 14.6 µM | 28.4 µM | 12.2 µM | 27 µM | 19.2 µM | 60 µM | 18.1 µM | 43.8 µM | 14.7 µM | 32.6 µM | 15.5 µM | 41.9 µM | 16.4 µM | 29.9 µM | 10.9 µM | 32 µM |
| CC1OC(OC2C(O)C(O)C(O)C(O)C2O)C(N)CC1N=C(N)C(=O)O (stereo not given) | – | > 100 µM | – | > 100 µM | – | > 100 µM | – | > 100 µM | – | > 100 µM | – | > 100 µM | – | > 100 µM | – | > 100 µM | – | > 100 µM | – | > 100 µM |
| COc1ccc(C(O)c2cc3c(N)c(C(=O)Nc4cccc(Br)c4C)sc3nc2C)cc1 (stereo not given) | 0.0816 µM | 11.2 µM | 0.179 µM | 2.99 µM | 0.254 µM | > 33.3 µM | 1.04 µM | > 11 µM | 0.151 µM | 18.1 µM | 0.103 µM | 1.08 µM | 0.104 µM | 2.34 µM | 0.618 µM | 18.4 µM | 0.143 µM | 0.922 µM | 0.12 µM | 5.77 µM |
| O=[N+]([O-])/C=C/c1ccc(Cl)cc1[N+](=O)[O-] | 3.79 µM | 15.9 µM | 3.18 µM | 77.7 µM | 2.42 µM | 4.62 µM | 1.81 µM | 3.47 µM | 2.16 µM | 9.09 µM | – | – | 3.23 µM | 14.1 µM | 2.54 µM | 8.34 µM | 8.47 µM | 21.5 µM | – | – |
| CC1(C)C2CCC13C(=O)C1OC3(C2)C2C(=O)c3c(ccc4c3ccc3ccccc34)C(=O)C12 (stereo not given) | > 65.8 µM | > 100 µM | > 46.7 µM | > 94.8 µM | > 36.3 µM | > 70.3 µM | > 54 µM | > 100 µM | 20 µM | 80.1 µM | 40.7 µM | > 100 µM | – | 11.1 µM | > 66.5 µM | > 100 µM | 54.3 µM | > 100 µM | > 64.6 µM | > 100 µM |
| CCOC(=O)/C(=C\c1ccc2ccccc2c1)P(=O)(OCC)OCC | 2.57 µM | 14.8 µM | 3.15 µM | 11.2 µM | 2.26 µM | 5.61 µM | 2.26 µM | 4.89 µM | 3.06 µM | 12 µM | 1.95 µM | 4.07 µM | 2.15 µM | 5.16 µM | 2.84 µM | 6.81 µM | 2.55 µM | 6.5 µM | 2.8 µM | 8.18 µM |
| NCCCN=c1ccc2c3c1c(O)c1c(O)ccc(=O)c1c3[nH]n2CCNCCO | 0.423 µM | 5.14 µM and 4.69 µM | 20.1 µM | 25 µM and > 236 µM | 0.723 µM | 11.4 µM and 5.28 µM | 1.61 µM | 5.91 µM and 6.96 µM | 1.1 µM and 0.528 µM | 11.2 µM and 3.84 µM | 4.18 µM | 17.4 µM and 22.5 µM | 0.665 µM and 0.556 µM | 1.7 µM and 9.33 µM | 5.08 µM | 15.6 µM and 68 µM | 0.706 µM | 3.61 µM and 4.11 µM | 3.08 µM | 11.9 µM and 21.7 µM |
| CCOC(=O)c1c(CN2CCN(C)CC2)nc2ccc(Cl)cc2c1-c1ccccc1 | 2.15 µM | 8.95 µM | 5.35 µM | 14.5 µM | 7.05 µM | 18.8 µM | 1.71 µM | 3.57 µM | 2.95 µM | 13.6 µM | 6.5 µM | 19.6 µM | 2.2 µM | 6.22 µM | 8.83 µM | 24.8 µM | 1.72 µM | 3.18 µM | 2.28 µM | 6.16 µM |
| Cc1nc2ccccc2c(=O)n1/N=C(\N=Nc1cc(Cl)ccc1Cl)c1ccccc1 | – | 74.1 µM | – | > 100 µM | – | > 100 µM | – | > 100 µM | – | > 100 µM | – | > 100 µM | – | > 100 µM | – | > 100 µM | – | > 100 µM | – | > 88.7 µM |
| CC(=O)Oc1cc2cnc3c4cc(OC(C)=O)c(OC(C)=O)cc4ccc3c2cc1OC(C)=O | 0.25 µM | 7.7 µM | 1.88 µM | > 100 µM | 2.99 µM | 16.3 µM | 4.3 µM | > 100 µM | 0.611 µM | > 100 µM | 1.01 µM | 9.5 µM | 3.26 µM | 19.8 µM | 3.27 µM | > 100 µM | – | – | 4.18 µM | > 100 µM |
| COc1cc2ncnc(Oc3cccc(NC(=O)Nc4cc(C(C)(C)C(F)(F)F)on4)c3)c2cc1OC | 2.79 µM and 6.27 µM | 13.5 µM and > 10 µM | 2.99 µM and 2.86 µM | 24.6 µM and > 10 µM | 2.58 µM and 4.44 µM | 14.7 µM and > 10 µM | 0.103 µM and 0.153 µM | 5.71 µM and > 5.57 µM | 1.06 µM and 1.44 µM | > 43 µM | 2.66 µM and 3.62 µM | 16.5 µM and > 10 µM | 2.7 µM and 0.816 µM | > 28.5 µM | 2.65 µM and 3.68 µM | 19.4 µM and > 10 µM | 1.3 µM and 1.45 µM | 3.01 µM and 3.67 µM | 0.197 µM and 0.215 µM | 6.9 µM and > 10 µM |
| O=C1Nc2ccc3c(c2/C1=C\c1cc2c(cc1Br)OCO2)OCO3 | 0.189 µM | 1.41 µM | 0.364 µM | 4.97 µM | 1.24 µM | 3.43 µM | 0.356 µM | 2.66 µM | 0.331 µM | 2.8 µM | 0.217 µM | 0.589 µM | 0.271 µM | 2.35 µM | 0.338 µM | 2.8 µM | 0.429 µM | 2.52 µM | – | – |
| CCCCCCCCCCCCCCCC[n+]1ccccc1 | 0.528 µM and 0.609 µM | 1.72 µM and 2.78 µM | 2.56 µM and 4.38 µM | 15.1 µM and 27 µM | 0.548 µM | 1.91 µM | 0.255 µM and 0.495 µM | 0.702 µM and 1.85 µM | 0.616 µM and 1.13 µM | 3.38 µM and 10.2 µM | 0.366 µM | 1.5 µM | 0.326 µM | 1.21 µM | 0.243 µM and 0.244 µM | 0.846 µM and 0.692 µM | – | – | 0.199 µM and 0.25 µM | 0.765 µM and 1.26 µM |
| COc1ccc(-c2cc(/C=C/C(=O)c3ccc(N)cc3)[nH]n2)cc1 | 2.25 µM | 11.4 µM | 2.86 µM | 15.5 µM | 2.12 µM | 5.69 µM | 1.85 µM | 3.45 µM | 1.32 µM | 11.1 µM | 1.25 µM | 2.97 µM | 1.43 µM | 7.71 µM | 2.42 µM | 10.1 µM | 2.71 µM | 9.25 µM | 2.75 µM | 8.11 µM |
| COc1cc2c3cc1Oc1c(OC)c(OC)cc4c1C(Cc1ccc(O)c(c1)Oc1ccc(cc1)CC3N(C)CC2)N(C)CC4 (stereo not given) | 11.3 µM | 52.7 µM and 24 µM | – | > 100 µM | – | > 100 µM and 33.3 µM | 14.3 µM | > 100 µM and 30.4 µM | 14 µM | 48.5 µM and 40.6 µM | – | 39.1 µM | 20.2 µM | 91.3 µM and 54.6 µM | 23.4 µM | > 100 µM | 11 µM | 52 µM and 23.3 µM | 1.78 µM | > 100 µM and 32.8 µM |
| COc1cccc(-c2nc3sccn3c2-c2ccnc(NCCCNS(=O)(=O)c3ccccc3)c2)c1 | 1.55 µM | 8.08 µM | 2.62 µM | 8.7 µM | 6.03 µM | > 100 µM | 3.01 µM | > 100 µM | 2.81 µM | > 100 µM | 3.3 µM | > 100 µM | 2.33 µM | 5.63 µM | 1.97 µM | 6.3 µM | 1.88 µM | 3.77 µM | 3.23 µM | > 100 µM |
| COc1cc(/C=C2\SC(N3CCCCC3)=NC2=O)ccc1OCCCCCCOc1ccc(/C=C2\SC(N3CCCCC3)=NC2=O)cc1OC | 2.34 µM | 6.4 µM | 9.11 µM | 28.2 µM | 7.71 µM | 27.8 µM | 19.9 µM | > 100 µM | 22.7 µM | 84.7 µM | 6.04 µM | 18.7 µM | 14.6 µM | 84.4 µM | 12.4 µM | 56.7 µM | 9.35 µM | 28.2 µM | 8.38 µM | 30.4 µM |
| O=C(O)c1ccccc1NCn1c(=S)sc2ccccc21 | – | > 100 µM | – | > 100 µM | – | > 100 µM | – | 56.7 µM | – | > 100 µM | – | > 100 µM | – | 38 µM | – | > 100 µM | – | – | – | > 100 µM |
